Patent USRE48461E1, “Modulation of androgen receptor expression” (Ionis Pharmaceuticals, Inc., priority 2012, dated 2021)
Oligonucleotides are written 5' to 3', each unit as a sugar letter and its base; * is a phosphorothioate linkage, no mark a phosphodiester; rarer units and linkages stand in square brackets, end groups in braces. Plain capitals give the bases only. k = constrained ethyl (cEt); [5mC] = 5-methylcytosine; d = 2'-deoxy (DNA)

Columns and labels:
[1] = tested on: AR mRNA; test: AR mRNA in LnCaP cells by free uptake (hAR_LTS00943); type: cell-based, human; settings: 24 hrs
Method: Cells were plated at a concentration of 4,000 cells/well in 96-well plates. ISIS oligonucleotides, specified in Table 68, were added individually at 0.02 μM, 0.10 μM, 0.50 μM, 2.50 μM, or 10.00 μM. After an incubation period of 24 hrs, mRNA levels were measured using primer probe set hAR_LTS00943.

[2] = tested on: AR mRNA; test: Dose-dependent antisense inhibition of human AR in HuVEC cells (electroporation, qRT-PCR RTS3559, IC50); type: cell-based
Outline: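 HuVEC cells dosed with antisense oligonucleotides by electroporation and treated approximately 16 hours. AR mRNA quantified by real-time qPCR with primer probe set RTS3559 and normalised to total RNA by RIBOGREEN; IC50 from dose-response.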

Substance: 549372 (kA*kA*kG*dT*dT*dG*dT*dA*dG*dT*dA*dG*dT*k[5mC]*kG*k[5mC]) [compound 549372]
- Percent inhibition of AR mRNA ([1]; 0.02 μM): 0%
- Percent inhibition of AR mRNA ([1]; 0.1 μM): 0%
- Percent inhibition of AR mRNA ([1]; 0.5 μM): 21%
- Percent inhibition of AR mRNA ([1]; 10 μM): 78%
- percent inhibition of AR ([2]; 31.25 nM, HuVEC, ~16 h, Table 14): 2%
- percent inhibition of AR ([2]; 46.9 nM, HuVEC, ~16 h, Table 15): 9%
- percent inhibition of AR ([2]; 55.6 nM, HuVEC, ~16 h, Table 3): 22%
- percent inhibition of AR ([2]; 62.5 nM, HuVEC, ~16 h, Table 14): 17%
- percent inhibition of AR ([2]; 125.0 nM, HuVEC, ~16 h, Table 14): 31%
- percent inhibition of AR ([2]; 166.7 nM, HuVEC, ~16 h, Table 3): 51%
- percent inhibition of AR ([2]; 187.5 nM, HuVEC, ~16 h, Table 15): 41%
- percent inhibition of AR ([2]; 500.0 nM, HuVEC, ~16 h, Table 3): 85%
- percent inhibition of AR ([2]; 500.0 nM, HuVEC, ~16 h, Table 14): 61%
- percent inhibition of AR ([2]; 750.0 nM, HuVEC, ~16 h, Table 15): 66%
- percent inhibition of AR ([2]; 1000.0 nM, HuVEC, ~16 h, Table 14): 80%
- percent inhibition of AR ([2]; 1500.0 nM, HuVEC, ~16 h, Table 3): 89%
- percent inhibition of AR ([2]; 3000.0 nM, HuVEC, ~16 h, Table 15): 87%
- IC50 ([2]; HuVEC cells, electroporation): 290 nM
- inhibition of AR mRNA at 46.9 nM ([2]; HuVEC cells, electroporation, 46.9 nM ASO): 9%
- inhibition of AR mRNA at 187.5 nM ([2]; HuVEC cells, electroporation, 187.5 nM ASO): 41%
- inhibition of AR mRNA at 750.0 nM ([2]; HuVEC cells, electroporation, 750.0 nM ASO): 66%
- inhibition of AR mRNA at 3000.0 nM ([2]; HuVEC cells, electroporation, 3000.0 nM ASO): 87%
- IC50 ([2]; HuVEC, ~16 h, Table 3): 150 nM
- IC50 ([2]; HuVEC, ~16 h, Table 14): 271 nM
- IC50 ([2]; HuVEC, ~16 h, Table 15): 290 nM
- percent inhibition of AR, 46.9 nM ([2]; Table 29, 46.9 nM, HuVEC, electroporation, approximately 16 hours): 7%
- percent inhibition of AR, 187.5 nM ([2]; Table 29, 187.5 nM, HuVEC, electroporation, approximately 16 hours): 41%
- percent inhibition of AR, 750.0 nM ([2]; Table 29, 750.0 nM, HuVEC, electroporation, approximately 16 hours): 70%
- percent inhibition of AR, 3000.0 nM ([2]; Table 29, 3000.0 nM, HuVEC, electroporation, approximately 16 hours): 91%
- IC50 ([2]; Table 29, HuVEC, electroporation, approximately 16 hours): 320 nM
- percent inhibition of AR, 46.9 nM ([2]; Table 30, 46.9 nM, HuVEC, electroporation, approximately 16 hours): 13%
- percent inhibition of AR, 187.5 nM ([2]; Table 30, 187.5 nM, HuVEC, electroporation, approximately 16 hours): 29%
- percent inhibition of AR, 750.0 nM ([2]; Table 30, 750.0 nM, HuVEC, electroporation, approximately 16 hours): 69%
- percent inhibition of AR, 3000.0 nM ([2]; Table 30, 3000.0 nM, HuVEC, electroporation, approximately 16 hours): 90%
- IC50 ([2]; Table 30, HuVEC, electroporation, approximately 16 hours): 370 nM
- percent inhibition of AR, 46.9 nM ([2]; Table 31, 46.9 nM, HuVEC, electroporation, approximately 16 hours): 5%
- percent inhibition of AR, 187.5 nM ([2]; Table 31, 187.5 nM, HuVEC, electroporation, approximately 16 hours): 36%
- percent inhibition of AR, 750.0 nM ([2]; Table 31, 750.0 nM, HuVEC, electroporation, approximately 16 hours): 69%
- percent inhibition of AR, 3000.0 nM ([2]; Table 31, 3000.0 nM, HuVEC, electroporation, approximately 16 hours): 88%
- IC50 ([2]; Table 31, HuVEC, electroporation, approximately 16 hours): 360 nM
- percent inhibition of AR, 46.9 nM ([2]; Table 32, 46.9 nM, HuVEC, electroporation, approximately 16 hours): 15%
- percent inhibition of AR, 187.5 nM ([2]; Table 32, 187.5 nM, HuVEC, electroporation, approximately 16 hours): 39%
- percent inhibition of AR, 750.0 nM ([2]; Table 32, 750.0 nM, HuVEC, electroporation, approximately 16 hours): 70%
- percent inhibition of AR, 3000.0 nM ([2]; Table 32, 3000.0 nM, HuVEC, electroporation, approximately 16 hours): 86%
- IC50 ([2]; Table 32, HuVEC, electroporation, approximately 16 hours): 300 nM
- percent inhibition of AR, 46.9 nM ([2]; Table 33, 46.9 nM, HuVEC, electroporation, approximately 16 hours): 14%
- percent inhibition of AR, 187.5 nM ([2]; Table 33, 187.5 nM, HuVEC, electroporation, approximately 16 hours): 33%
- percent inhibition of AR, 750.0 nM ([2]; Table 33, 750.0 nM, HuVEC, electroporation, approximately 16 hours): 64%
- percent inhibition of AR, 3000.0 nM ([2]; Table 33, 3000.0 nM, HuVEC, electroporation, approximately 16 hours): 90%
- IC50 ([2]; Table 33, HuVEC, electroporation, approximately 16 hours): 340 nM
- percent inhibition of AR, 46.9 nM ([2]; Table 34, 46.9 nM, HuVEC, electroporation, approximately 16 hours): 14%
- percent inhibition of AR, 187.5 nM ([2]; Table 34, 187.5 nM, HuVEC, electroporation, approximately 16 hours): 36%
- percent inhibition of AR, 750.0 nM ([2]; Table 34, 750.0 nM, HuVEC, electroporation, approximately 16 hours): 64%
- percent inhibition of AR, 3000.0 nM ([2]; Table 34, 3000.0 nM, HuVEC, electroporation, approximately 16 hours): 88%
- IC50 ([2]; Table 34, HuVEC, electroporation, approximately 16 hours): 320 nM
- percent inhibition of AR, 46.9 nM ([2]; Table 35, 46.9 nM, HuVEC, electroporation, approximately 16 hours): 0%
- percent inhibition of AR, 187.5 nM ([2]; Table 35, 187.5 nM, HuVEC, electroporation, approximately 16 hours): 28%
- percent inhibition of AR, 750.0 nM ([2]; Table 35, 750.0 nM, HuVEC, electroporation, approximately 16 hours): 64%
- percent inhibition of AR, 3000.0 nM ([2]; Table 35, 3000.0 nM, HuVEC, electroporation, approximately 16 hours): 88%
- IC50 ([2]; Table 35, HuVEC, electroporation, approximately 16 hours): 420 nM
- percent inhibition of AR, 46.9 nM ([2]; Table 36, 46.9 nM, HuVEC, electroporation, approximately 16 hours): 2%
- percent inhibition of AR, 187.5 nM ([2]; Table 36, 187.5 nM, HuVEC, electroporation, approximately 16 hours): 26%
- percent inhibition of AR, 750.0 nM ([2]; Table 36, 750.0 nM, HuVEC, electroporation, approximately 16 hours): 61%
- percent inhibition of AR, 3000.0 nM ([2]; Table 36, 3000.0 nM, HuVEC, electroporation, approximately 16 hours): 85%
- IC50 ([2]; Table 36, HuVEC, electroporation, approximately 16 hours): 420 nM
